In patent US20240132431A1, “METHOD FOR ALKYLATING ACIDIC FUNCTIONAL GROUP” (Chugai Seiyaku Kabushiki Kaisha, priority 2021, published 2024):

Biological target: T1, Bcl-2 protein (Recombinant Human Bcl-2 Protein) (Homo sapiens, UniProt P10415)
T1 construct: purchased Novus NBP2-34889
Assay: Binding evaluation of mixture library compounds to Bcl-2 using AS-MS (affinity selection mass spectrometry)
Details: AS-MS, mixture library, Bcl-2, ASMS Ratio(%)=(A−C)/B×100; for ASMS ratio (%) n = 1: replicate n = 1; for ASMS ratio (%) n = 2: replicate n = 2
In short: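 Pooled library of ~1200 compounds ([…] each, final) incubated with recombinant human Bcl-2 (20 μM final) in Tris-HCl pH 7.4, NaCl, Tween-20, DTT buffer, dark, 23° C., 1 h. Bound fraction recovered by SEC spin column, organic extraction, reversed-phase LC/MS. ASMS Ratio (%) = (A−C)/B×100 versus protein-free standard and SEC blank.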

T1 sequence (P10415 whole entry): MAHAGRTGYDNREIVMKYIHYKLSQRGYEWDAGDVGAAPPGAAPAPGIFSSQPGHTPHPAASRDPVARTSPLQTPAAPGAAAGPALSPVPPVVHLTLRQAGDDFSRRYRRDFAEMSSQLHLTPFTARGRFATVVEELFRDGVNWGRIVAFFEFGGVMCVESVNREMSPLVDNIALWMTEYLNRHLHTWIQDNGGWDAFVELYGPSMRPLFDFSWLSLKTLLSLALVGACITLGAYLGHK

Row | SMILES | ASMS ratio (%) n = 1 | ASMS ratio (%) n = 2
1 | CCOc1cccc(-c2csc(C(=O)N3CCN(c4ccc(C(=O)NS(=O)(=O)CC56CC7CC(CC(C7)C5)C6)cc4)CC3)c2)c1 [B2A023-01, N-(1-Adamantylmethylsulfonyl)-4-[4-[4-(3-ethoxyphenyl)thiophene-2-carbonyl]piperazin-1-yl]benzamide] | 0.0% | 0.0%
2 | CCOc1cncc(-c2csc(C(=O)N3CCN(c4ccc(C(=O)NS(=O)(=O)CC56CC7CC(CC(C7)C5)C6)cc4)CC3)c2)c1 [B2A024-01, N-(1-Adamantylmethylsulfonyl)-4-[4-[4-(5-ethoxypyridin-3-yl)thiophene-2-carbonyl]piperazin-1-yl]benzamide] | −1.9% | 0.0%
3 | CCOc1cccc(-c2ccc(C(=O)N3CCN(c4ccc(C(=O)NS(=O)(=O)CC56CC7CC(CC(C7)C5)C6)cc4)CC3)cc2C)c1 [B2A025-01, N-(1-Adamantylmethylsulfonyl)-4-[4-[4-(3-ethoxyphenyl)-3-methylbenzoyl]piperazin-1-yl]benzamide] | 4.6% | −2.7%
4 | CCOc1cncc(-c2ccc(C(=O)N3CCN(c4ccc(C(=O)NS(=O)(=O)CC56CC7CC(CC(C7)C5)C6)cc4)CC3)cc2C)c1 [B2A026-01, N-(1-Adamantylmethylsulfonyl)-4-[4-[4-(5-ethoxypyridin-3-yl)-3-methylbenzoyl]piperazin-1-yl]benzamide] | 0.8% | −2.1%
5 | CCOc1cccc(-c2ccc(C(=O)N3CCN(c4ccc(C(=O)NS(=O)(=O)CC56CC7CC(CC(C7)C5)C6)cc4)CC3)cc2F)c1 [B2A027-01, N-(1-Adamantylmethylsulfonyl)-4-[4-[4-(3-ethoxyphenyl)-3-fluorobenzoyl]piperazin-1-yl]benzamide] | 5.5% | −3.9%
6 | CCOc1cncc(-c2ccc(C(=O)N3CCN(c4ccc(C(=O)NS(=O)(=O)CC56CC7CC(CC(C7)C5)C6)cc4)CC3)cc2F)c1 [B2A028-01, N-(1-Adamantylmethylsulfonyl)-4-[4-[4-(5-ethoxypyridin-3-yl)-3-fluorobenzoyl]piperazin-1-yl]benzamide] | −1.0% | 1.2%
7 | CCOc1cncc(C#Cc2ccccc2C(=O)N2CCN(c3ccc(C(=O)NS(=O)(=O)CC45CC6CC(CC(C6)C4)C5)cc3)CC2)c1 [B2A030-01, N-(1-Adamantylmethylsulfonyl)-4-[4-[2-[2-(5-ethoxypyridin-3-yl)ethynyl]benzoyl]piperazin-1-yl]benzamide] | 0.0% | 0.3%
8 | CCOc1cccc(C#Cc2cncc(C(=O)N3CCN(c4ccc(C(=O)NS(=O)(=O)CC56CC7CC(CC(C7)C5)C6)cc4)CC3)c2)c1 [B2A031-01, N-(1-Adamantylmethylsulfonyl)-4-[4-[5-[2-(3-ethoxyphenyl)ethynyl]pyridine-3-carbonyl]piperazin-1-yl]benzamide] | 0.0% | 0.3%
9 | CCOc1cncc(C#Cc2cncc(C(=O)N3CCN(c4ccc(C(=O)NS(=O)(=O)CC56CC7CC(CC(C7)C5)C6)cc4)CC3)c2)c1 [B2A032-01, N-(1-Adamantylmethylsulfonyl)-4-[4-[5-[2-(5-ethoxypyridin-3-yl)ethynyl]pyridine-3-carbonyl]piperazin-1-yl]benzamide] | 0.0% | 0.0%
10 | CCOc1cccc(-c2ccccc2CCC(=O)N2CCN(c3ccc(C(=O)NS(=O)(=O)CC45CC6CC(CC(C6)C4)C5)cc3)CC2)c1 [B2A033-01, N-(1-Adamantylmethylsulfonyl)-4-[4-[3-[2-(3-ethoxyphenyl)phenyl]propanoyl]piperazin-1-yl]benzamide] | 1.7% | −4.5%
11 | CCOc1cncc(-c2ccccc2CCC(=O)N2CCN(c3ccc(C(=O)NS(=O)(=O)CC45CC6CC(CC(C6)C4)C5)cc3)CC2)c1 [B2A034-01, N-(1-Adamantylmethylsulfonyl)-4-[4-[3-[2-(5-ethoxypyridin-3-yl)phenyl]propanoyl]piperazin-1-yl]benzamide] | 1.6% | 0.3%
12 | CCOc1cccc(-c2ccc(C(=O)N3CCN(c4ccc(C(=O)NS(=O)(=O)CC56CC7CC(CC(C7)C5)C6)cc4)CC3)c3ccccc23)c1 [B2A035-01, N-(1-Adamantylmethylsulfonyl)-4-[4-[4-(3-ethoxyphenyl)naphthalene-1-carbonyl]piperazin-1-yl]benzamide] | 6.2% | −9.8%

The next lines start with the values.

Row | ASMS ratio (%) n = 1 | ASMS ratio (%) n = 2 | SMILES
13 | 18.6% | 7.5% | CCOc1cccc(-c2cc(C(=O)N3CCN(c4ccc(C(=O)NS(=O)(=O)CC56CC7CC(CC(C7)C5)C6)nn4)CC3)cc(C(F)(F)F)c2)c1 [B2A017-01, N-(1-Adamantylmethylsulfonyl)-6-[4-[3-(3-ethoxyphenyl)-5-(trifluoromethyl)benzoyl]piperazin-1-yl]pyridazine-3-carboxamide]
14 | 5.1% | 0.0% | CCOc1cncc(-c2cc(C(=O)N3CCN(c4ccc(C(=O)NS(=O)(=O)CC56CC7CC(CC(C7)C5)C6)nn4)CC3)cc(C(F)(F)F)c2)c1 [B2A018-01, N-(1-Adamantylmethylsulfonyl)-6-[4-[3-(5-ethoxypyridin-3-yl)-5-(trifluoromethyl)benzoyl]piperazin-1-yl]pyridazine-3-carboxamide]
15 | 7.4% | 5.0% | CCOc1cccc(C#Cc2cc(C(=O)N3CCN(c4ccc(C(=O)NS(=O)(=O)CC56CC7CC(CC(C7)C5)C6)nn4)CC3)cc(C(F)(F)F)c2)c1 [B2A019-01, N-(1-Adamantylmethylsulfonyl)-6-[4-[3-[2-(3-ethoxyphenyl)ethynyl]-5-(trifluoromethyl)benzoyl]piperazin-1-yl]pyridazine-3-carboxamide]
16 | 3.4% | 8.9% | CCOc1cncc(C#Cc2cc(C(=O)N3CCN(c4ccc(C(=O)NS(=O)(=O)CC56CC7CC(CC(C7)C5)C6)nn4)CC3)cc(C(F)(F)F)c2)c1 [B2A020-01, N-(1-Adamantylmethylsulfonyl)-6-[4-[3-[2-(5-ethoxypyridin-3-yl)ethynyl]-5-(trifluoromethyl)benzoyl]piperazin-1-yl]pyridazine-3-carboxamide]
17 | 14.4% | 9.4% | CCOc1cccc(-c2cnn(-c3cc(C(=O)N4CCN(c5ccc(C(=O)NS(=O)(=O)CC67CC8CC(CC(C8)C6)C7)nn5)CC4)cc(C(F)(F)F)c3)c2)c1 [B2A021-01, N-(1-Adamantylmethylsulfonyl)-6-[4-[3-[4-(3-ethoxyphenyl)pyrazol-1-yl]-5-(trifluoromethyl)benzoyl]piperazin-1-yl]pyridazine-3-carboxamide]
18 | 27.0% | 3.7% | CCOc1cncc(-c2cnn(-c3cc(C(=O)N4CCN(c5ccc(C(=O)NS(=O)(=O)CC67CC8CC(CC(C8)C6)C7)nn5)CC4)cc(C(F)(F)F)c3)c2)c1 [B2A022-01, N-(1-Adamantylmethylsulfonyl)-6-[4-[3-[4-(5-ethoxypyridin-3-yl)pyrazol-1-yl]-5-(trifluoromethyl)benzoyl]piperazin-1-yl]pyridazine-3-carboxamide]
